This is an account of results in a melting point compilation (Tetko et al.; mined from patent text by program, amines drawn as free bases though some values may be those of a salt).

As to `N#CCCC(C#N)(CCC#N)C(N)=O`, the melting point was 118 to 120 °C.
Under `C=CCn1c(C)nc2c3c(c(C(=O)OCC)cc21)C(=O)CC1(Cc2ccccc2C1)N3` stands 183 to 184 °C.
Under `C#CCOC(=O)C1=C(C)NN=C(CC)C1c1cccc([N+](=O)[O-])c1` (configuration not stated) stands 70 °C.
In turn, `COc1ccc(C(O)c2ccccn2)c(Cl)c1Cl` (configuration not stated) showed a melting point of 174 to 176 °C.
Under `CCOc1cc2ncc(C#N)c(Nc3ccc4c(c3)NCC4)c2cc1OCC` stands 121 to 124 °C; under `CNC(=O)c1ccc(Br)c2nsnc12`, 156 to 160 °C; under `Cc1ccc(C)c(OCc2ccccc2C(=NOC(F)F)C(N)=O)c1`, 153 to 156 °C.
On to `CCCCCc1ccc(S(=O)(=O)n2c(CCC(=O)O)cc3cc(Cl)ccc32)cc1`, for which the melting point was 131 to 134 °C.
Then `CCCCN(CC)C(=O)c1cnc2c3c(ccc2c1)C(=O)C(C(=O)O)C=N3` (configuration not stated), with 236 to 237 °C.
Then `N#Cc1cnc(Nc2ccc(OCCn3ccnn3)cc2)nc1-c1ccccc1`, with 178 °C.
Then `CN(NC1=CC(=O)NCC1)c1ccccc1`, with 180 to 182 °C; and `COc1ccc(NC(=O)N(Cc2ccccc2)Cc2ccccn2)c(NC(=O)c2cc(C(C)(C)C)c(O)c(C(C)(C)C)c2)c1`, with 165 to 166 °C.
The compound `Cc1ccc(Sc2c(Cl)c(Cl)c(C(O)=NCCO)c(C(=O)O)c2Cl)cc1` returned a melting point of 205 to 209 °C.
In turn, `CC1CCCN(C(=O)C2C(C)c3ccccc3N2c2ccc(Cl)nn2)C1` (configuration not stated) showed a melting point of 169 to 171 °C.
`CCOC(=O)C1=C(C)NC(N=CN(C)C)=C(C(=O)OCC)C1c1ccccc1[N+](=O)[O-]` (configuration not stated) showed a melting point of 126 °C.
Then `CN1CCN(c2ccc(C(=O)N[C@H]3CC[C@H](CCN4CCN(c5nccc6c5OCC6)CC4)CC3)cc2)CC1`, with 236 °C.
`CCN(Cc1nc2cc(OC)c(OC)cc2c(-c2ccc(OC)c(OC)c2)c1C(C)=O)C(C)(C)C` came in with a melting point of 156 to 157 °C.
Under `CNC(=O)N1CCC(Oc2c(F)c(F)c(F)c(F)c2F)(c2ccccc2)CC1` stands 87 to 89 °C; under `CC(=O)N1CCC(c2ccc(S(=O)(=O)Cl)cc2)CC1`, 133 to 134 °C; under `CC(C)CC(S)C(=O)NC(CC(C)C)C(=O)NC(Cc1ccc(-c2cccs2)nc1)C(=O)O` (configuration not stated), 156 to 158 °C.
`[N-]=[N+]=C1C(=O)Oc2ccc(S(=O)(=O)Cl)cc2C1=O` showed a melting point of 185 °C.
Then `COc1ccccc1N1CCN(C2CCN(c3noc4ccccc34)CC2)CC1`, with 71 to 73 °C; and `Cn1nnc(-c2ccc3c(c2)c(C2=CCN(CCc4nnnn4C)CC2)cn3-c2ccc(F)cc2)n1`, with 171 to 173 °C.
Under `COc1cc(OC)c(-c2nc3ncccc3[nH]2)s1` stands 93 to 96 °C; under `Nc1nc(N)c2cc(Cc3ccc4ccccc4c3)ccc2n1`, 256 to 257 °C; under `CCn1ncc2c(O)c(CCc3ccccc3)c(C(=O)O)nc21`, 250 to 251 °C.
For the compound `O[C@@H](CCOc1cccc2ccccc12)c1ccccc1`, the melting point lay in the range of 76 to 78 °C.
Under `O=C(O)CCCCCCCCCCc1cccs1` stands 41 to 42 °C; under `COc1cc2c(c3c1OC(C)(C)C3)C(c1cccc(-c3cncnc3)c1)=NC(C)(C)C2`, 141 to 143 °C; under `CCN1CCNC1=C[N+](=O)[O-]`, 110 to 111 °C.
Under `CNS(=O)(=O)N=C(NC(=O)OC)C(C)C` stands 194 to 199 °C; under `NC(=O)[C@H]1CN(c2cc(F)c(N3CCOCC3)c(F)c2)C(=O)O1`, 181 to 183 °C; under `CCCCc1nc(Cl)c(CC(=O)OCC)c(Cc2ccc(-c3ccccc3-c3nnn[nH]3)cc2)n1`, 160 °C.
Then `O=C(NCC(O)CO)c1cc2c(Oc3ccc(Cl)cc3)cncc2s1` (configuration not stated), with 106 to 115 °C; and `O=C(c1ccc(C(F)(F)F)cc1O)N1CCN(c2ccc(OC[C@H]3CCn4cc([N+](=O)[O-])nc4O3)cc2)CC1`, with 217 to 220 °C.
In turn, `CC(C)OC(=O)Nc1cccc(-c2ccnc3c(C(=O)c4ccoc4)cnn23)c1` showed a melting point of 127 to 129 °C.
Turning to `CCN(CC)CCNC(=O)c1cc(I)cc2c(Cl)ccnc12`, the melting point lay in the range of 76 to 78 °C.
`COc1cc(Cc2cnc(N)nc2N)cc(OC)c1N(C)N=O` displayed a melting point of 249 to 250 °C.
Under `CS(=O)(=O)c1ccc(-c2cccn2-c2ccc(F)c(Cl)c2)cc1` stands 146 to 149 °C; under `COc1ccc(/C(=C\C=C\C(=O)Oc2ccc([N+](=O)[O-])cc2)c2ccccc2OC)cc1`, 134 to 135 °C; under `COc1cc2cnc(O)nc2cc1OC`, 260 to 263 °C.
Turning to `Cc1cc(C)c(Nc2nc(C)ncc2S(=O)(=O)c2ccc(-c3ccncc3)cc2)c(C)c1`, the melting point was in the range of 232 to 234 °C.
Under `CNC(=C[N+](=O)[O-])NCCCCOc1cccc(CCCN(C)C)c1` stands 79 to 80.5 °C; under `COc1ccc(-c2cn(CCCC#N)c3c(OC)ccc(OC)c3c2=O)cc1`, 126 to 127 °C.
Then `CCC(=NO)C(C)(C)NCC(Cn1ccnc1[N+](=O)[O-])ONC(C)(C)C(CC)=NO` (configuration not stated), with 143 to 144 °C.
Then `CCCC[C@H](NC(=O)[C@H](CC(C)C)NC(=O)c1cccc(C)c1)C(=O)CSCc1ccco1`, with 123 to 126 °C; and `COCn1c(Cl)c(Cl)c(C#N)c1Cl`, with 48 to 49 °C; and `Cc1nc2c(-c3cccc(N4CCN(C)CC4)c3)cnn2c(N)c1-c1ccc(F)cc1`, with 204 to 206 °C.
In turn, `CC1CC2C3C=C(Cl)C4=CC(=O)CCC4(C)C3C(O)CC2(C)C1C(=O)CO` (configuration not stated) gave a melting point of 229 °C.
Under `O=C(COc1ccc(Cl)cc1Cc1cc(Cl)ccc1O)OCc1ccccc1` stands 135 to 137 °C.
Then `COc1ccc2[nH]c3c(c2c1)CCC(NC(C)=O)C3` (configuration not stated), with 191 to 193 °C; and `COc1ccc(S(=O)(=O)N(Cc2cccnc2)c2c(C(=O)O)cnc3c2c(C)nn3-c2ccccc2)cc1`, with 192 to 194 °C.
Under `COC(=O)Cn1c(C)cc(Sc2ccccc2)c(N)c1=O` stands 65 to 66 °C; under `CCN1CCC(c2ccccc2)=C(C(=O)NC)C1`, 103 to 105 °C.
In the case of `CC(C)C(=O)N1CCC(NC(=O)c2ccccc2Oc2ccc(Cl)cc2Cl)CC1`, the melting point lay within 51 to 54 °C.
For the compound `COc1cc2c(cc1OC)C(C(CO)CO)NCC2` (configuration not stated), the melting point turned out to be 140 °C.
Then `CC(C)C(=O)c1ccc(OCc2ccc(CNC(=O)c3cn(C)cn3)cc2)c(C(F)(F)F)c1O`, with 165 °C; and `CCCCn1c(=O)n(C(C)C)c(=O)c2[nH]c(C)nc21`, with 172 to 173 °C.
`CC(C)(C)c1cc(-c2nc(CS(C)(=O)=O)no2)cc(C(C)(C)C)c1O` showed a melting point of 153 to 155 °C.
`Cc1ccc(C(=O)C2=C(O)C(=O)N(c3ccc(C)nn3)C2c2ccc(C)cc2C)cc1` (configuration not stated) gave a melting point of 254 °C.
Under `CCOC(=O)c1c(O)c2cc(C)ccc2n(Cc2ccccc2)c1=O` stands 113 °C; under `Nc1ccc2oc3c(OC(F)F)ccc(C(=O)Nc4c(Cl)cncc4Cl)c3c2c1`, 87 to 89 °C.
